# Results reported in ChEMBL document CHEMBL5244257, “The role of imidazole and benzimidazole heterocycles in Chagas disease: A review” (Eur J Med Chem, 2020).
# Key:
# Trypanosoma cruzi [1] = assay: Antitrypanosomal activity against Trypanosoma cruzi epimastigotes; assay type: functional, organism-based
# [2] = Inhibition of Trypanosoma cruzi TIM
# Trypanosoma cruzi [3] = assay: Antitrypanosomal activity against of Trypanosoma cruzi Y trypomastigotes measured after 48 hrs by giemsa staining based microscopic analysis; assay type: functional, organism-based
# Trypanosoma cruzi [4] = assay: Antitrypanosomal activity against bloodstream form of Trypanosoma cruzi Y […] measured after 24 hrs by giemsa staining based microscopic analysis; assay type: functional, organism-based
# Trypanosoma cruzi [5] = assay: Antitrypanosomal activity against Trypanosoma cruzi Tulahuen strain trypomastigotes infected in human MRC5 cells measured after 7 days; assay type: functional, organism-based; conditions: MRC5, 168 h
# Trypanosoma cruzi [6] = assay: Antitrypanosomal activity against Trypanosoma cruzi Y strain amastigotes incubated for 24 hrs by microscopy analysis; assay type: functional, organism-based
# Trypanosoma cruzi [7] = assay: Antitrypanosomal activity against Trypanosoma cruzi trypomastigotes; assay type: functional, organism-based
# Trypanosoma cruzi [8] = assay: Trypanocidal activity against Trypanosoma cruzi trypomastigotes; assay type: functional, organism-based
# Cruzipain [9] = molecular target: T1, Cruzipain (Trypanosoma cruzi, UniProt P25779); assay: Inhibition of Trypanosoma cruzi Cruzain
# T1 sequence (P25779 whole entry): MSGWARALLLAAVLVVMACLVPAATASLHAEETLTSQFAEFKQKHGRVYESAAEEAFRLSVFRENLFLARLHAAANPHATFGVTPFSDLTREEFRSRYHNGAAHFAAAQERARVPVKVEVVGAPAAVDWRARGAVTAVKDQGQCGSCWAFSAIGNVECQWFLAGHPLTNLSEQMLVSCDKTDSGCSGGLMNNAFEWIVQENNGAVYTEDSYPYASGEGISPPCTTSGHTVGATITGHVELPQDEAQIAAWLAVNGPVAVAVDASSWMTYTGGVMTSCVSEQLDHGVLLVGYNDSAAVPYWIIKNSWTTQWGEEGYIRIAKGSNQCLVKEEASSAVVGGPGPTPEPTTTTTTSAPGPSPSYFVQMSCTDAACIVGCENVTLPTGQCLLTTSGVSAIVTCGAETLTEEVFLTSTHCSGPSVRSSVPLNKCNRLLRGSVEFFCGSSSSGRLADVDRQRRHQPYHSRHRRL
# Trypanosoma cruzi [10] = assay: Antitrypanosomal activity against of Trypanosoma cruzi amastigotes; assay type: functional, organism-based
# [11] = Inhibition of Trypanosoma cruzi epimastigotes Fe-SOD by Bradford method
# Trypanosoma cruzi [12] = assay: Antitrypanosomal activity against Trypanosoma cruzi IRHOD/CO/2008/SN3 epimastigotes; assay type: functional, organism-based
# Trypanosoma cruzi [13] = assay: Inhibition of Trypanosoma cruzi TIM at 100 uM relative to control
# Cruzipain [14] = molecular target: T1, Cruzipain; assay: Inhibition of Trypanosoma cruzi Cruzain using Z-Phe-Arg-AMC as flurogenic substrate
# Trypanosoma cruzi [15] = assay: Antitrypanosomal activity against Trypanosoma cruzi Tulahuen LacZ amastigotes infected in human HFF-1 cells incubated for 120 hrs; assay type: functional, organism-based; conditions: HFF-1, 120 h
# Trypanosoma cruzi [16] = assay: Inhibition of Trypanosoma cruzi assessed as inhibition of parasite growth at 100 uM relative to control; assay type: functional
# Trypanosoma cruzi [17] = assay: Antiparasitic activity against Trypanosoma cruzi Tulahuen strain amastigotes; assay type: functional, organism-based
# Trypanosoma cruzi [18] = assay: Antitrypanosomal activity against of Trypanosoma cruzi Tulahuen strain amastigotes infected in mouse 3T3 cells by alamar blue staining based analysis; assay type: functional, organism-based; conditions: NIH3T3
# Cruzipain [19] = molecular target: T1, Cruzipain; assay: Inhibition of Trypanosoma cruzi Tulahuen 2 Cruzain using Z-Phe-Arg-AMC as flurogenic substrate at 100 uM by spectrophotometry based analysis relative to control
# Trypanosoma cruzi [20] = assay: Antitrypanosomal activity against Trypanosoma cruzi Tulahuen 2 epimastigotes measured after 5 days; assay type: functional, organism-based; conditions: Tulahuen 2, 120 h
# Trypanosoma cruzi [21] = assay: Antitrypanosomal activity against Trypanosoma cruzi Y strain trypomastigotes infected in Swiss albino mouse incubated for 24 hrs; assay type: functional, organism-based
smiles,measurement,setting,value
COc1ccc(O)c(-c2nc(C)c(C)[nH]2)c1,IC50,Trypanosoma cruzi [1],10700 nM
CSc1nc2cc(C(=O)Nc3ncc([N+](=O)[O-])s3)c(Cl)cc2n1C,IC50,[2],100000 nM
C=C(c1ccccc1OCc1cccc(Cl)c1)n1ccnc1 [CROCONAZOLE],IC50,Trypanosoma cruzi [3],16000 nM
same,IC50,Trypanosoma cruzi [4],24000 nM
Cc1ccc(-c2c[nH]c(NC(=O)N3CCN(c4ccc(C(F)(F)F)cc4[N+](=O)[O-])CC3)n2)cc1,IC50,Trypanosoma cruzi [5],2200 nM
O=C(N[C@@H](Cn1ccnc1)c1ccc(Cl)cc1Cl)c1ccc(-c2nnc(-c3ccccc3)o2)cc1,IC50,Trypanosoma cruzi [6],900 nM
same,IC50,Trypanosoma cruzi [7],11000 nM
c1ccc2c(c1)cnn1c[n+](C3CCCCC3)c(NC3CCCCC3)c21,IC50,Trypanosoma cruzi [1],1140 nM
c1ccc(-c2nc(-c3cccc4ccccc34)c[nH]2)cc1,IC50,Trypanosoma cruzi [8],35500 nM
CC(C)c1cccc(C(C)C)c1-n1cc[n+](-c2c(C(C)C)cccc2C(C)C)c1,IC50,Trypanosoma cruzi [1],1100 nM
Cc1ccc(OCCn2c(CCNC(=O)C3CCCCC3)nc3ccccc32)cc1,IC50,Trypanosoma cruzi [1],64000 nM
same,IC50,Cruzipain [9],2000 nM
CN(C)c1ccc(-c2nc(-c3ccccc3)c(-c3ccccc3)[nH]2)cc1,IC50,Trypanosoma cruzi [10],960 nM
c1ccc2c(c1)ccn1c[n+](C3CCCCC3)c(NC3CCCCC3)c21,IC50,Trypanosoma cruzi [1],1020 nM
Brc1ccc(-c2c[nH]c(-c3ccccn3)n2)cc1,IC50,Trypanosoma cruzi [5],1200 nM
COc1ccc(-n2c[n+](-c3ccc(OC)cc3)c(Cc3ccccc3)c2-c2ccc(C)cc2)cc1,IC50,Trypanosoma cruzi [1],440 nM
Oc1cccc2c(NCCc3c[nH]cn3)nnc(Cl)c12,IC50,[11],27000 nM
same,IC50,Trypanosoma cruzi [12],8500 nM
Cn1c(OC(N)=O)nc2cc(Oc3cccc4ccccc34)c(Cl)cc21,inhibition,Trypanosoma cruzi [13],60%
Cc1cccc(OCCNC(=O)n2ccnc2)c1,IC50,Cruzipain [14],1000 nM
same,IC50,Trypanosoma cruzi [15],1100 nM
Oc1ccc(-n2c[n+](-c3ccc4ccccc4c3)c(Cc3ccccc3)c2-c2ccc(Cl)cc2)cc1,IC50,Trypanosoma cruzi [1],540 nM
Cn1c([N+](=O)[O-])cnc1C1=NOC2CCCCC12 (stereo unspecified),IC50,Trypanosoma cruzi [1],33000 nM
CCOC(=O)c1nc2ccc([N+](=O)[O-])cc2n1OC(=O)OC(C)(C)C,inhibition at 100 µM,Trypanosoma cruzi [16],61%
Cc1cc(C)c(-n2cc[n+](-c3c(C)cc(C)cc3C)c2)c(C)c1,IC50,Trypanosoma cruzi [1],2000 nM
Cc1ccc2[nH]c(CCNC(=O)COc3ccc4ccccc4c3Br)nc2c1,IC50,Cruzipain [9],610 nM
O=C(N[C@@H](Cn1ccnc1)c1ccc(-c2ccc(F)cc2)cc1F)c1ccc(-c2nnc(-c3ccccc3)o2)cc1,IC50,Trypanosoma cruzi [17],0.8 nM
Cc1ccccc1OCC(=O)NCCc1nc2ccccc2[nH]1,IC50,Cruzipain [9],1600 nM
O=C(COc1ccc2ccccc2c1Br)NCCc1nc2cc(Cl)ccc2[nH]1,IC50,Cruzipain [9],590 nM
Sc1nc2cc(Cl)ccc2[nH]1,IC50,Trypanosoma cruzi [8],320000 nM
c1ccc(-c2ccc(Cn3cncc3CNc3ccc(-c4nc5ccccc5s4)c(-c4ccccc4)c3)cc2)cc1,IC50,Trypanosoma cruzi [18],20 nM
CCOC(=O)Cc1[nH]c(-c2ccccc2)nc1-c1ccc(C)cc1,IC50,Trypanosoma cruzi [8],51100 nM
CCCCn1c(-c2ccc(Br)cc2)nc2ccccc21,IC50,Cruzipain [19],55000 nM
same,IC50,Trypanosoma cruzi [20],13300 nM
Cn1cnc([N+](=O)[O-])c1-n1cc(C2CC2)nn1,IC50,Trypanosoma cruzi [21],5400 nM
Cn1c([N+](=O)[O-])cnc1-c1c(-c2ccccc2)nc(-c2ccc(Br)cc2)n1O,IC50,Trypanosoma cruzi [7],23900 nM
